Reference: US20130225543A1, “SPECIFIC REGULATION OF CYTOKINE LEVELS BY HDAC6 INHIBITORS” (Acetylon Pharmaceuticals, priority 2010, published 2013)

Columns and labels:
IL-1β = settings: Carta et al. 2006; cited from earlier work
[1] = test system: collagen induced arthritis; assay: Collagen induced arthritis in mice; format: in vivo, male DBA/1OlaHsd mice; settings: 30 mg/kg twice daily injection from Day 18
Description: To test these two HDAC6 inhibitors in an animal model of a chronic inflammatory disease a mouse collagen induced arthritis in a semi-therapeutic mode is used. In this study male DBA/1OlaHsd mice, 6 weeks old, are anesthetized with Isoflurane and given 150 μL Type II collagen in Freund's complete adjuvant on Day 0 and Day 21. Treatment with compound is initiated on Day 18. The mice in the treatment groups are injected twice daily with 30 mg/kg of compound in 10% DMSO/10% Solutol HS15/80% 0.9% saline. […] Inflammation in the joints is measured daily and a disease score is calculated based on paw thickness.

HDAC5 = biological target: T1, HDAC5 (Homo sapiens, UniProt Q9UQL6); assay: Kinetic HDAC enzyme inhibition assay, HDAC5; format: biochemical; settings: recombinant HDAC
T1 construct: purchased BPS Biosciencies (San Diego, Calif.)
Description: (§1) HDAC inhibitory activity of the compounds described in Table 1 is measured using a kinetic HDAC assay. Recombinant HDACs are obtained from BPS Biosciencies (San Diego, Calif.). […] Fluorescence measurements are obtained approximately once per minute using a multilabel plate reader. Data were analyzed using GraphPad Prism.

HDAC4 = biological target: T2, HDAC4 (Homo sapiens, UniProt P56524); assay: Kinetic HDAC enzyme inhibition assay, HDAC4; format: biochemical; settings: recombinant HDAC
T2 construct: purchased BPS Biosciencies (San Diego, Calif.)
Description: as §1

HDAC7 = biological target: T3, HDAC7 (Homo sapiens, UniProt Q8WUI4); assay: Kinetic HDAC enzyme inhibition assay, HDAC7; format: biochemical; settings: recombinant HDAC
T3 construct: purchased BPS Biosciencies (San Diego, Calif.)
T3 sequence (Q8WUI4 1-952): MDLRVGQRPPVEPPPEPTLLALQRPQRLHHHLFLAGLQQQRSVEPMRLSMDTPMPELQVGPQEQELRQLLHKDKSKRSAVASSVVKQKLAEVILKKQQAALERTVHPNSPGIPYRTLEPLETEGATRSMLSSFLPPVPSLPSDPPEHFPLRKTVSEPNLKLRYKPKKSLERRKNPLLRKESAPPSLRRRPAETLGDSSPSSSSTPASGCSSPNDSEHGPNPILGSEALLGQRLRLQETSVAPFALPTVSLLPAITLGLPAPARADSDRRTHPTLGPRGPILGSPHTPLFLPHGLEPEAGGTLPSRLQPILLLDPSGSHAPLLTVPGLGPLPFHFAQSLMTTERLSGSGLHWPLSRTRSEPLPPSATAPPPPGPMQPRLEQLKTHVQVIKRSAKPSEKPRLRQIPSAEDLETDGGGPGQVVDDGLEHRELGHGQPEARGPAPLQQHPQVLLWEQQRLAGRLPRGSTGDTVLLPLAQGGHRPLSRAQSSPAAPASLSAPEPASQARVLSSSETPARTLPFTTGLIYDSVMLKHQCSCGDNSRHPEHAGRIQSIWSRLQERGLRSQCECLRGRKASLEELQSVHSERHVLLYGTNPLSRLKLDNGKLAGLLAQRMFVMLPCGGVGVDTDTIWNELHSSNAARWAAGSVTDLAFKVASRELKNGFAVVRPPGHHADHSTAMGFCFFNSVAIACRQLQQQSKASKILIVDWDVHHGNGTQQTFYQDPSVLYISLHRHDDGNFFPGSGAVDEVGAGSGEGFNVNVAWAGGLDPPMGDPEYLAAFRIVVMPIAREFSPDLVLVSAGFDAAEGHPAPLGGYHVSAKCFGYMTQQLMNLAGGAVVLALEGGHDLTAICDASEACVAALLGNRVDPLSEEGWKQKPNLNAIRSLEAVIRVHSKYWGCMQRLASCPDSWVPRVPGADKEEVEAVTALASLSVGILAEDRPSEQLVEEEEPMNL
Description: as §1

HDAC9 = biological target: T4, HDAC9 (Homo sapiens, UniProt Q9UKV0); assay: Kinetic HDAC enzyme inhibition assay, HDAC9; format: biochemical; settings: recombinant HDAC
T4 construct: purchased BPS Biosciencies (San Diego, Calif.)
Description: as §1

[2] = test system: RAW264.7 mouse macrophages; assay: TNFα protein and mRNA in LPS stimulated RAW264.7 macrophages; format: cell-based; settings: 10 ng/ml LPS, two hours; for TNFα protein level in supernatant: ELISA; for TNFα mRNA level: RT-PCR relative to GAPDH
Description: The cells are stimulated with 10 ng/ml LPS and incubated for two hours. The cell supernatants are collected and assayed for the level of TNFα by ELISA. The cells are harvested and mRNA purified using an RNEasy kit from Qiagen. The level of TNFα mRNA is determined by RT-PCR using a StepOne Plus real time PCR machine. The change in the relative level of TNFα mRNA as compared to the level of GAPDH mRNA is plotted, along with the concentration of TNFα protein in the supernatant (see FIG. 4).

HDAC2 = biological target: T5, HDAC2 (Homo sapiens, UniProt Q92769); assay: Kinetic HDAC enzyme inhibition assay, HDAC2; format: biochemical; settings: recombinant HDAC
T5 construct: purchased BPS Biosciencies (San Diego, Calif.)
Description: as §1

HDAC1 = biological target: T6, HDAC1 (Homo sapiens, UniProt Q13547); assay: Kinetic HDAC enzyme inhibition assay, HDAC1; format: biochemical; settings: recombinant HDAC
T6 construct: purchased BPS Biosciencies (San Diego, Calif.)
Description: as §1

human PBMCs = assay: LPS induced cytokine release from PBMCs; format: cell-based; settings: 1 μM compound, 0.5 ng/ml LPS overnight
Description: Whole blood from three anonymous donors is collected in vacutainer tubes with sodium heparin as an anti-coagulant (Research Blood Components, Brighton, Mass.). A total volume of 30 ml of blood is diluted and layered over Ficoll-Paque Plus (GE Life Sciences) and centrifuged at 400×g for 30 minutes. The peripheral blood mononuclear cell (PBMC) fraction is removed from the interface of plasma and Ficoll and washed once with PBS.
Cells are seeded in 24 well plates at a density of 400,000 cells per well.
After the overnight stimulation the plates are centrifuged at 200×g for 5 minutes. The supernatant is removed and a small aliquot is reserved for determination of TNFα levels by ELISA (R&D Systems, catalog number STA00C). The remainder of the supernatant is frozen at −80° C. and sent to Millipore Bioscience Division (St. Charles, Mo.) for multiplex cytokine analysis.

Class I HDACs and HDAC6 = settings: Bradner et al. 2010; cited from earlier work
[3] = test system: proinflammatory cytokines; settings: Leoni et al. 2002, 2005; cited from earlier work

T1 sequence (Q9UQL6 whole entry): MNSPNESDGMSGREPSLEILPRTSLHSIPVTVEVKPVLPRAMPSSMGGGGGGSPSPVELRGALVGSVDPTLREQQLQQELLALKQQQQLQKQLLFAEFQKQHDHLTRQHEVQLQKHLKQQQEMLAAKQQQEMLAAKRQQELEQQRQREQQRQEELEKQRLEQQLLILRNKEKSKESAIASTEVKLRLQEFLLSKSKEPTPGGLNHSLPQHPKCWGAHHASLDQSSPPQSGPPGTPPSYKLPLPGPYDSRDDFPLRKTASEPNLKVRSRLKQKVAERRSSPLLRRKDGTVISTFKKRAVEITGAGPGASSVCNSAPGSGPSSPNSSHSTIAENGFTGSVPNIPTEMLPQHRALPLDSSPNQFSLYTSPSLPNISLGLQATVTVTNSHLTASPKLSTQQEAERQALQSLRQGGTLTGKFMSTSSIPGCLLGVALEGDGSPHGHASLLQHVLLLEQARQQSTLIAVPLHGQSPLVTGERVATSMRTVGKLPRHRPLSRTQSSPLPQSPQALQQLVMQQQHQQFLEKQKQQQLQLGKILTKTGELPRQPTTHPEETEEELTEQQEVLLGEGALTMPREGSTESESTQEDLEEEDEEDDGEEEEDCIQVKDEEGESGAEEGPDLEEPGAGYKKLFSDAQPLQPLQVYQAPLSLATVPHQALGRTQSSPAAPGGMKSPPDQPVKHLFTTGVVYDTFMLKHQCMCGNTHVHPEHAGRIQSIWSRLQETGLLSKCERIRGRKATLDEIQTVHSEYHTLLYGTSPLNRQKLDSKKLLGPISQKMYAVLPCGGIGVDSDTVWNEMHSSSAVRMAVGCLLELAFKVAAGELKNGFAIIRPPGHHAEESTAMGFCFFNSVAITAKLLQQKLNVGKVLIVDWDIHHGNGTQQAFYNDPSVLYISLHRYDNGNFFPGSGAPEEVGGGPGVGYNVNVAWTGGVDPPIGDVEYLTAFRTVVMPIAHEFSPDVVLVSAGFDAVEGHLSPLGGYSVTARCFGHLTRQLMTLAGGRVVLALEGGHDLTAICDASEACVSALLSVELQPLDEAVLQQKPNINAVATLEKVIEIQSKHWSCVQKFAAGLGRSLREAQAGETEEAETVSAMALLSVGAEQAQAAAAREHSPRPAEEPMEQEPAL
T4 sequence (Q9UKV0 whole entry): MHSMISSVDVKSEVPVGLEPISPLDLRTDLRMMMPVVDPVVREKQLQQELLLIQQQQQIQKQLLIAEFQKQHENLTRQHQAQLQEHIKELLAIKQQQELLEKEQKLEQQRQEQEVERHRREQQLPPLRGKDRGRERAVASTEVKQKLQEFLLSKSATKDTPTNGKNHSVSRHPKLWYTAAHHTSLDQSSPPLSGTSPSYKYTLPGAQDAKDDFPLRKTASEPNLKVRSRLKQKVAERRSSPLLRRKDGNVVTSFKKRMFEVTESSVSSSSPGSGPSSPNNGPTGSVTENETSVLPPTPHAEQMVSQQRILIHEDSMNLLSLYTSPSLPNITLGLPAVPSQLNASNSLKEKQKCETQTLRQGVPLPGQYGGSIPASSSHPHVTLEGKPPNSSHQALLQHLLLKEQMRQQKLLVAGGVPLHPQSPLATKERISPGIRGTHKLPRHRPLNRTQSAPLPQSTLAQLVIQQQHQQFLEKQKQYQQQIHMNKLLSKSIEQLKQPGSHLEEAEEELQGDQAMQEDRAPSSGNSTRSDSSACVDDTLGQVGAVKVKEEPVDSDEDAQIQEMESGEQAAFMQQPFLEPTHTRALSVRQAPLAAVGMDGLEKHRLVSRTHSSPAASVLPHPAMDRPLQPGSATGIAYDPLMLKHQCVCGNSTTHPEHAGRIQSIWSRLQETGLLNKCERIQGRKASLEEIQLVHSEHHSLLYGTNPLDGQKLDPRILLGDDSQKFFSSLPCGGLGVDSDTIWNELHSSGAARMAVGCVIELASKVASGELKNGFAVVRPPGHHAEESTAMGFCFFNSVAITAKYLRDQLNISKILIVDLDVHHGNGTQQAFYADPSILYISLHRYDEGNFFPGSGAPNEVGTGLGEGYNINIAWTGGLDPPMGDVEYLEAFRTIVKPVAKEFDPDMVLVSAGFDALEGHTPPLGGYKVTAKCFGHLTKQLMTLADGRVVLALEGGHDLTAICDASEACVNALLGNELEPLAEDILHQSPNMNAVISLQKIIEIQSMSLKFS
T5 sequence (Q92769 whole entry): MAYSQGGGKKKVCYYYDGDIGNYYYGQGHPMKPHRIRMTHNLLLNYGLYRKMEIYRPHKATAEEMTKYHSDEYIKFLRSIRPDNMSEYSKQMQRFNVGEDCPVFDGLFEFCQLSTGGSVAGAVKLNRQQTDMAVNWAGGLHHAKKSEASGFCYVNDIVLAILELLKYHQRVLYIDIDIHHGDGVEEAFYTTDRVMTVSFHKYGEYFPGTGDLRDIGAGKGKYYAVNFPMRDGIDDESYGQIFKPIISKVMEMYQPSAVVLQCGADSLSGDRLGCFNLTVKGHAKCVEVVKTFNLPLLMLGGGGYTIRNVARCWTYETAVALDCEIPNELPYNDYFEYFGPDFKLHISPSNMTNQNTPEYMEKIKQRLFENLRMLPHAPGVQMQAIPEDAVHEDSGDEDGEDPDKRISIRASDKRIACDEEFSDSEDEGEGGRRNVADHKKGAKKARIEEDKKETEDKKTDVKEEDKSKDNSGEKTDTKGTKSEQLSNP
T2 sequence (P56524 whole entry): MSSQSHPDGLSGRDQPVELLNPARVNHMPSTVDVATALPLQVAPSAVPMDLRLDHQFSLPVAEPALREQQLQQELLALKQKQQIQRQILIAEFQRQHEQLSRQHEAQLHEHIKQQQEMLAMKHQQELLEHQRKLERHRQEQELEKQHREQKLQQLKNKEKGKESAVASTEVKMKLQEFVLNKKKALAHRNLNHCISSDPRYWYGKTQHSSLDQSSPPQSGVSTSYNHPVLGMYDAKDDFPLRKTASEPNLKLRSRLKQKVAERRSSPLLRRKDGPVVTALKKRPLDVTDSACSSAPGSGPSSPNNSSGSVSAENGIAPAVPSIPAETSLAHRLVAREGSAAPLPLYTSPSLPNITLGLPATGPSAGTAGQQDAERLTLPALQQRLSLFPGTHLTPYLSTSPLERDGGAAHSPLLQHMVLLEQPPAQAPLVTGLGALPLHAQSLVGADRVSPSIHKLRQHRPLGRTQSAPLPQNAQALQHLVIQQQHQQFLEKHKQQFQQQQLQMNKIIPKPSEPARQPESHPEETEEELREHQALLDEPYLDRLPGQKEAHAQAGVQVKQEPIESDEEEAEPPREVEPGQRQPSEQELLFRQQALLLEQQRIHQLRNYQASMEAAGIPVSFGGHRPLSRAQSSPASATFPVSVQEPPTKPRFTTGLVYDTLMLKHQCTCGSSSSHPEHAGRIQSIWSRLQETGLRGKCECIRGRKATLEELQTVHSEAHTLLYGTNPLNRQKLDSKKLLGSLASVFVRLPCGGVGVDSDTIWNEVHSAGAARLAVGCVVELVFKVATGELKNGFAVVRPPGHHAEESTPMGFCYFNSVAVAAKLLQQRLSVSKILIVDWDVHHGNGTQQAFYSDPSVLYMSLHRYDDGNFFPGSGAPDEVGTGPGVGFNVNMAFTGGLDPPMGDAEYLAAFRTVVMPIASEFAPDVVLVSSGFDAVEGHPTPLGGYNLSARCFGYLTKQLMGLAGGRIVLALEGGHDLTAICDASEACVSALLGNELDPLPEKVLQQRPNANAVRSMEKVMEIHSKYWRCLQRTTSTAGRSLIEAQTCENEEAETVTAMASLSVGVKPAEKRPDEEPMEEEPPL
T6 sequence (Q13547 whole entry): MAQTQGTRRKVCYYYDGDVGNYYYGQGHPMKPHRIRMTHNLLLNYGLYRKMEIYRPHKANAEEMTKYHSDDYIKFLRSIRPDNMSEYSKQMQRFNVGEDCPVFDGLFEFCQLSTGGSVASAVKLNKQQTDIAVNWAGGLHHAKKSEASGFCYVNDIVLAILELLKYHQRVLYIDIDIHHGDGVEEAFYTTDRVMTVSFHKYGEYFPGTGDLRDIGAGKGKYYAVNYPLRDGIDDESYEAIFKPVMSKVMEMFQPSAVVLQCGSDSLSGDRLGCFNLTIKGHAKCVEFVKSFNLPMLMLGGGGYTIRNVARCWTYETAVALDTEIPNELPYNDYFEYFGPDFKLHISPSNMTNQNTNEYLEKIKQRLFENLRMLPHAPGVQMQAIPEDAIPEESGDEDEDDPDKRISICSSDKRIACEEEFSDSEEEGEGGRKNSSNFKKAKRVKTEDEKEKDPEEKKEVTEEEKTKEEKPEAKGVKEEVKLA

Row | IC50 (HDAC5) [nM] | IC50 (HDAC4) [nM] | IC50 (HDAC7) [nM] | IC50 (HDAC9) [nM] | IC50 (HDAC2) [nM] | IC50 (HDAC1) [nM] | Compound | Level of synthesis or intracellular localization of the precursors of IL-1β (IL-1β) | Secretion of mature IL-1β (IL-1β) | Number of LPS induced cytokines decreased (of eight) (human PBMCs) | further results
1 | – | – | – | – | – | – | O=C(CCCCCCC(=O)Nc1ccc([C@H]2O[C@@H](CSc3nc(-c4ccccc4)c(-c4ccccc4)o3)C[C@@H](c3ccc(CO)cc3)O2)cc1)NO [tubacin] | do not affect | inhibit secretion | – | –
2 | – | – | – | – | – | – | CC(/C=C/C(=O)NO)=C\[C@@H](C)C(=O)c1ccc(N(C)C)cc1 [Trichostatin A] | do not affect | inhibit secretion | – | –
3 | – | – | – | – | – | – | O=C(CCCCCCNC(=O)c1cnc(N(c2ccccc2)c2ccccc2)nc1)NO [ACY-63] | – | – | – | Decrease of severity of disease (average) [1]: 67%
4 | – | – | – | – | – | – | C[C@@H]1NC(=O)[C@H]2CCCN2C(=O)[C@H](CCCCCC(=O)[C@@H]2CO2)NC(=O)[C@@H](C)NC1=O [HC-toxin] | do not affect | inhibit secretion | – | –
5 | 8200 | > 10000 | > 10000 | > 10000 | 450 | 178 | COC(c1ccc(F)cc1)(c1ccc(F)cc1)c1ccc(C(=O)NCCCCCCC(=O)NO)cc1 [ACY-257] | – | – | five of eight | Decrease of severity of disease (average) [1]: 50%; Effect on production of GM-CSF (human PBMCs): significantly decreasing; Effect on production of IL-1β (human PBMCs): significantly decreasing; Effect on production of IL-6 (human PBMCs): significantly decreasing; Effect on production of IL-7 (human PBMCs): no effect; Effect on production of IL-8 (human PBMCs): no effect; Effect on production of IL-10 (human PBMCs): significantly decreasing; Effect on production of MCP-1 (human PBMCs): no effect; Effect on production of TNF-α (human PBMCs): significantly decreasing
6 | > 10000 | > 10000 | > 10000 | > 10000 | 131 | 57 | Cc1ccccc1N(c1ccccc1)c1ncc(C(=O)NCCCCCCC(=O)NO)cn1 [ACY-216] | – | – | three of eight | –
7 | – | – | – | – | – | – | CCN(CC)Cc1ccc2cc(COC(=O)Nc3ccc(C(=O)NO)cc3)ccc2c1 [ITF2357] | do not affect | inhibit secretion | – | HDAC class selectivity (Class I HDACs and HDAC6): selective for Class I HDACs and HDAC6 but not Class IIa; Levels of proinflammatory cytokines [3]: non-specifically reduce
8 | – | – | – | – | – | – | O=C(CCCCCCC(=O)Nc1ccccc1)NO [SAHA, Suberoylanilide hydroxamic acid] | do not affect | inhibit secretion | six out of eight | Levels of proinflammatory cytokines [3]: non-specifically reduce
9 | 5900 | > 10000 | > 10000 | > 10000 | 96 | 45 | O=C(CCCCCCNC(=O)c1ccc(C(O)(c2ccccn2)c2ccccn2)cc1)NO [ACY-251] | – | – | – | –

Row | Compound | IC50 (HDAC5) [nM] | IC50 (HDAC4) [nM] | IC50 (HDAC7) [nM] | IC50 (HDAC9) [nM] | IC50 (HDAC2) [nM] | IC50 (HDAC1) [nM] | Level of synthesis or intracellular localization of the precursors of IL-1β (IL-1β) | Secretion of mature IL-1β (IL-1β) | Number of LPS induced cytokines decreased (of eight) (human PBMCs) | further results
10 | O=C(NO)c1cnc(NC2(c3ccccc3)CC2)nc1 [ACY-738] | 882 | 1600 | 1600 | 914 | – | – | – | – | – | TNFα protein level in supernatant [2]: inhibition; TNFα protein level in supernatant ([2]; listed as ACY-739): decreases; TNFα mRNA level [2]: inhibition; TNFα mRNA level ([2]; listed as ACY-739): decreases
